Experimental findings from patent publication US20220153766A1, “CONDENSED TRICYCLIC COMPOUND USED AS KINASE INHIBITOR” (Hangzhou Innogate Pharma Co., Ltd., priority 2019, published 2022) are described below.

One series addresses EGFR (T790M/L858R/C797S) (Homo sapiens, UniProt P00533, C797S/L858R/T790M). The series can be described thus: EGFR (T790M/L858R/C797S) kinase activity inhibition, Caliper mobility shift assay. It counts as biochemical. The following applies: kinase 2.5 nM, ATP 40 μM.
Series [1] in a line: Pharmacokinetic study in rats after intragastrical administration. As to conditions: male, rat, plasma, po, SD rats, 3 mg/kg. Format: in vivo.
In series [2] the target is Ba/F3_EGFR del19/T790M/C797S cells (Homo sapiens, UniProt P00533, T790M/C797S, cells depend on it, form not given). The series can be described thus: Ba/F3_EGFR (del19-T790M-C797S) cell proliferation inhibition, CTG, method 2. It counts as cell-based. As to conditions: 2000 cells/well, 72 h, read-out: Ba/F3_EGFR (del19-T790M-C797S) cell proliferation inhibition (IC50 value) Method 2. On the procedure: Take a small amount of cells and count them with ViCell. 2) Adjust the cell density, inoculate the cells in a 384-well plate at 2000/well, and incubate in a 37° C., 5% CO2 incubator for 4 hours. 3) Set up the program of Tecan HP D300, add the compound to the well plate. The maximum initial concentration of the compound is 1-4 μM, 3 folds dilution, 9 concentrations, and the DMSO content in each well is unified to 0.2%.
Ba/F3_EGFR del19/T790M/C797S cells, sequence (P00533 with tags, fused parts or gaps DEL746-750/T790M/C797S, form open): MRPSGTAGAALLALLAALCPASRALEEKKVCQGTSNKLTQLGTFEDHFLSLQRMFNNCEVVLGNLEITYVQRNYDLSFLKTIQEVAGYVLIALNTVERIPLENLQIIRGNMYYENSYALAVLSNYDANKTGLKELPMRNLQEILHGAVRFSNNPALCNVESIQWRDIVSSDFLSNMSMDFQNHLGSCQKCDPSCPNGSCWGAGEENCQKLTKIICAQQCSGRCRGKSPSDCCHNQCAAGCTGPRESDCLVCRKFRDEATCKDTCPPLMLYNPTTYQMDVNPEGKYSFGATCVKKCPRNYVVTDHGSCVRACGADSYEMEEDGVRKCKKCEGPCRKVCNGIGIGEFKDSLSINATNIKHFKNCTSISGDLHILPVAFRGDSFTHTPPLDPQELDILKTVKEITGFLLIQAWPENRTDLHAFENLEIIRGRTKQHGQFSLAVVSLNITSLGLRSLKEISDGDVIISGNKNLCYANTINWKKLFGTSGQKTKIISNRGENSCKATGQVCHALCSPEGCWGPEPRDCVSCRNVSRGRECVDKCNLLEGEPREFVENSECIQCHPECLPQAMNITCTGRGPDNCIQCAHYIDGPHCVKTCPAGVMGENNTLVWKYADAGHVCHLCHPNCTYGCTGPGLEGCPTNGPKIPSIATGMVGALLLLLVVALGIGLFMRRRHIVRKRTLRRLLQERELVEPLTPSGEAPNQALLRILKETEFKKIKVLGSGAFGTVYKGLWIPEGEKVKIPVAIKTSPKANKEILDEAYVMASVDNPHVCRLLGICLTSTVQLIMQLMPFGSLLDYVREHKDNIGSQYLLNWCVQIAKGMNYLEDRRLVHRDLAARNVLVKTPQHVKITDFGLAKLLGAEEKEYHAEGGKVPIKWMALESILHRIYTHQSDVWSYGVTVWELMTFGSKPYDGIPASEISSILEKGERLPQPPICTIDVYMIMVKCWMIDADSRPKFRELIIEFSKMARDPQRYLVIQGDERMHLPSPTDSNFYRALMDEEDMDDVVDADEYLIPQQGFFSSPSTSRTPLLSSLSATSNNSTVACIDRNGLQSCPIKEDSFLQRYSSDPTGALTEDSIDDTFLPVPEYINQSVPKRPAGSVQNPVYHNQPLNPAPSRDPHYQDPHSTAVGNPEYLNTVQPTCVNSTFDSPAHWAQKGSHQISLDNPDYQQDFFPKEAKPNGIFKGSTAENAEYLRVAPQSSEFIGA
CTG method detection: 1) Take out the CTG reagent and cell plate and equilibrate at room temperature for 30 min, add 25 μL CTG to each well, shake at medium speed for 2 min, centrifuge at 1000 rpm for 1 minutes, and stand still at room temperature for 10 minutes. 2) Envision instrument reads the chemiluminescence signal value.
Data analysis: IC50 results are analyzed by IDBS's XL-fit 5.0 software.

Molecules are shown by their SMILES.

EGFR (T790M/L858R/C797S), sequence (P00533 25-1210 T790M/C797S/L858R): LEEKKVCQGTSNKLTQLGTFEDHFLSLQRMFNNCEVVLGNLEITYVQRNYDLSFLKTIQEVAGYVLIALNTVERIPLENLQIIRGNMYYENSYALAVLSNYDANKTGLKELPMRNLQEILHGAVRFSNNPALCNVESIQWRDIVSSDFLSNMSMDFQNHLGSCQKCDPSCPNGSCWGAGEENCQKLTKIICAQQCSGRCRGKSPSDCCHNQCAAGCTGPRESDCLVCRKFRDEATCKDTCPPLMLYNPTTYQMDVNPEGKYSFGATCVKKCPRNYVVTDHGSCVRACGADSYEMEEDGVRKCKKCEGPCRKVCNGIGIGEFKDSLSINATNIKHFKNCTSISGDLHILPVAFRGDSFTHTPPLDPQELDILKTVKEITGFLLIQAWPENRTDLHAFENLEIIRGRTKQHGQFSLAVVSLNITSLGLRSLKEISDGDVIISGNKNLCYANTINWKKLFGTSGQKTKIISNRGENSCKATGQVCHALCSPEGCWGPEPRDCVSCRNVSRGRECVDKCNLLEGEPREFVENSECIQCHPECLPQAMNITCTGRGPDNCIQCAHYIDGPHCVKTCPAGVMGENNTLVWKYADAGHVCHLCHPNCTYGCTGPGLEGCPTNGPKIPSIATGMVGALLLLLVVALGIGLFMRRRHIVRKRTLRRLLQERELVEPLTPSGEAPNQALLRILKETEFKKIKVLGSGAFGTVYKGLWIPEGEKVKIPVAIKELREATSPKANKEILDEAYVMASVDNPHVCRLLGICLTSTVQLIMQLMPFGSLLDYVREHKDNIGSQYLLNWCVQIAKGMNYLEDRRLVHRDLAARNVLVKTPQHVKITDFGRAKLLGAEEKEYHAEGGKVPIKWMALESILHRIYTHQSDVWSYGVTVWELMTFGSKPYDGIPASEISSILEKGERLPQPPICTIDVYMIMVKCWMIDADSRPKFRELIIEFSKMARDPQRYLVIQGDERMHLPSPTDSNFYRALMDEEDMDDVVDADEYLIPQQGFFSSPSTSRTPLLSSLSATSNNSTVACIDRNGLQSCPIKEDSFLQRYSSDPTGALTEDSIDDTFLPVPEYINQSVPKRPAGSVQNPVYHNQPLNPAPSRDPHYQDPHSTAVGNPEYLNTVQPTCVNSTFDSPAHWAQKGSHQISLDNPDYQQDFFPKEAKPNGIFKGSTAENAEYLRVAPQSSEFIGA

For orientation: IC50 means the concentration at which inhibition is half-maximal. For orientation: Cmax means the highest concentration seen after dosing. The Tmax is the time from dosing to the highest level. One may read the half-life as the time in which the quantity being followed falls by half. For `Cc1cc(Nc2ncc(Cl)c(Nc3ccccc3P(C)(C)=O)n2)cc2c1N1CCN(C3CCN(C)CC3)C[C@@H]1CO2` [Compound 27R], the IC50 at EGFR (T790M/L858R/C797S) was less than 3 nM. Also, in series [1], the Cmax amounted to 196 ng/mL, the time to peak (Tmax) amounted to 5.33 h and the half-life was 5.17 h. Further, in series [1] (read-out: AUC0-24 h), the AUC(0-t) worked out at 2750 ng·h/mL. The GI50 in series [2] is less than 20 nM.
